One block for each molecule: values may come before it.
Legend:
human recombinant COX-2 = molecular target: T1, human recombinant COX-2 (Homo sapiens, UniProt P35354); test: Impact of NSAIDs on COX-2 conversion of DHA; format: biochemical
T1 construct: made in house; host or cells: Sf9 insect cells (microsomal fractions)
T1 sequence (P35354 18-604): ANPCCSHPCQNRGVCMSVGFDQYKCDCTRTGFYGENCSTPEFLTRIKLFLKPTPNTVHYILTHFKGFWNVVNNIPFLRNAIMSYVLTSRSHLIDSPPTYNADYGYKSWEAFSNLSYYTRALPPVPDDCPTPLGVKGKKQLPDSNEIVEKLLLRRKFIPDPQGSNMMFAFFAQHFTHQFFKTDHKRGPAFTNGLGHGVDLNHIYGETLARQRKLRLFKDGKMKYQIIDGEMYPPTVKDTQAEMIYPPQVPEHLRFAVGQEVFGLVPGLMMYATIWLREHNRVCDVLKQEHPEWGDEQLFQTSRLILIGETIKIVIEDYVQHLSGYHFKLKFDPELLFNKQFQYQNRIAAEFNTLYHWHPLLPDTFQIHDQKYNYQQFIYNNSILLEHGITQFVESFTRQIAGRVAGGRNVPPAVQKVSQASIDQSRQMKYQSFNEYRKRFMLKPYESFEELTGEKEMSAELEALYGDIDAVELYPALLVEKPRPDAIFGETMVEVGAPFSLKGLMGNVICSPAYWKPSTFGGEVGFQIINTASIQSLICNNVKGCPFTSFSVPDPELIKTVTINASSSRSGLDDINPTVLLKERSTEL
Protocol: Human recombinant COX-2 was overexpressed in Sf9 insect cells (ATCC). The microsomal fractions (˜8 μl) were suspended in Tris (100 mM, pH 8.0) as in (35). ASA was incubated (˜2 mM, 37° C., 30 min) with COX-2 before addition of DHA (10 μM), or in some experiments [1-^14C]-labeled DHA (from American Radiolabeled Chemicals, Inc.), and conversions were monitored in parallel using [1^−14C]-labeled C20:4 (with ASA) (as in FIG. 2; also see text).
Incubations were extracted with deuterium-labeled internal standards (15-HETE and C20:4) for LC-MS-MS analysis as in (33) using a Finnigan LCQ liquid chromatography ion trap tandem mass spectrometer (San Jose, Calif.) equipped with a LUNA C18-2 (150×2 mm×5 μm or 100×2 mm×5 μm) column and a rapid spectra scanning UV diode array detector that monitored UV absorbance ˜0.2 min prior to samples entering the MS-MS. All intact cell incubations and in vivo exudates were stopped with 2 ml cold methanol and kept at −80° C. for >30 minutes. Samples were extracted using C18 solid phase extraction and analyzed using GC-MS (see Table 2) (Hewlett-Packard), thin layer chromatography or tandem liquid chromatography-mass spectrometry (LC-MS-MS). Also, a Chiralcel OB-H column (4.6×250 mm; J. T. Baker) was used to determine R and S alcohol configurations of monohydroxy-PUFA using isocratic mobile phase (hexane:isopropanol; 97.5:2.5, vol:vol, with a 0.6 ml/min flow rate). Detailed procedures for isolation, quantitation and structural determination of lipid-derived mediators were recently reported (36) and used here essentially as reported for elucidation of novel products.
Results are the mean±SEM, n=3. Products were extracted, identified, and quantitated using deuterium internal standards and LC-MS-MS (see Methods).

[1] = test system: IL-1β transcripts in DBTRG-05MG cells; test: Inhibition of TNF-stimulated IL-1β transcripts (RT-PCR); format: cell-based, human; conditions: 50 ng/ml TNFα, 16 h; read-out: IC50, inhibition of TNFα-induced IL-1β transcripts / cytokine expression
Protocol: FIG. 5 depicts Bioimpact properties of omega-3-derived Resolvins. A) Human glioma cells: Inhibition of TNF-stimulated IL-1β transcripts DBTRG-05MG cells 10^6/ml were stimulated with 50 ng/ml of human recombinant TNFα for 16 hours to induce expression of IL-1β transcripts. Concentration dependence with COX-2 products: 17-HDHA (n), 13-HDHA (l)and di-/tri-HDHA (n). […] (insets) Results are representative of RT-PCR gels of MG cells exposed to 100 nM of 13-HDHA or 17-HDHA and graphed after normalization of the IL-1β transcripts using GAPDH. B) Influence of eicosanoids and docosanoids on fMLP-induced neutrophil migration across micovascular endothelial monolayers Neutrophils (1×10^6 cells/monolayer) were exposed to vehicle containing buffer, or indicated concentrations of aspirin-triggered LXA4 analog (closed diamonds) 5S,12,18R-triHEPE (closed squares), 17R-HDHA (closed circles) or 13-HDHA (closed triangles) for 15 minutes at 37° C. Neutrophils were then layered on HMVEC monolayers and stimulated to transmigrate by a 10^−8 M fMLP gradient for 1 hr at 37° C. Transmigration was assessed by quantitation of the neutrophil marker myeloperoxidase. Results are presented as mean±SEM number of PMN (n=8-12 monolayers per condition). […]
Human glioma cells DBTRG-05MG cells (ATCC) were cultured as recommended by ATCC. […] Results were analyzed using the NIH Image program (http://rsb.info.nih.gov/nih-image).

PMN infiltration = test: Zymosan A-induced peritonitis; format: in vivo, FVB mice; conditions: for inhibition of PMN/leukocyte infiltration: i.v. bolus before zymosan A, lavage at 2 h
Protocol: FIG. 5 depicts Bioimpact properties of omega-3-derived Resolvins. A) Human glioma cells: Inhibition of TNF-stimulated IL-1β transcripts DBTRG-05MG cells 10^6/ml were stimulated with 50 ng/ml of human recombinant TNFα for 16 hours to induce expression of IL-1β transcripts. Concentration dependence with COX-2 products: 17-HDHA (n), 13-HDHA (l)and di-/tri-HDHA (n). […] (insets) Results are representative of RT-PCR gels of MG cells exposed to 100 nM of 13-HDHA or 17-HDHA and graphed after normalization of the IL-1β transcripts using GAPDH. B) Influence of eicosanoids and docosanoids on fMLP-induced neutrophil migration across micovascular endothelial monolayers Neutrophils (1×10^6 cells/monolayer) were exposed to vehicle containing buffer, or indicated concentrations of aspirin-triggered LXA4 analog (closed diamonds) 5S,12,18R-triHEPE (closed squares), 17R-HDHA (closed circles) or 13-HDHA (closed triangles) for 15 minutes at 37° C. Neutrophils were then layered on HMVEC monolayers and stimulated to transmigrate by a 10^−8 M fMLP gradient for 1 hr at 37° C. Transmigration was assessed by quantitation of the neutrophil marker myeloperoxidase. Results are presented as mean±SEM number of PMN (n=8-12 monolayers per condition). C) Reduction of PMN in murine peritonitis and skin pouch peritonitis: Compounds (100 ng in 120 μL sterile saline) were injected by intravenous bolus injection into the mouse tail vein and followed by 1 ml zymosan A (1 mg/ml) into the peritoneum. Peritoneal lavages were collected (2 h) and cell types were enumerated.
Human PMN transendothelial migration was quantitated by monitoring myeloperoxidase (MPO) an azurophilic granule marker as in (34, 37). Inflammatory exudates were initiated with intrapouch injection of recombinant mouse TNFα (100 ng/pouch; R&D Systems) into dorsal air pouches (10) of 6-8 wk male FVB mice fed laboratory rodent diet 5001 (Lab Diet, Purina Mills) containing less than 0.25% arachidonic acid, 1.49% EPA and 1.86% DHA followed by ASA (500 μg) at 3.5 h and 300 μg DHA/pouch at 4 h post-TNFα injection. At 6 h (within the resolution phase), pouches were lavaged (3 ml saline) and exudate cells were enumerated Inhibition of TNFα stimulated (100 ng/pouch) PMN infiltration with i.v. tail injection of either 17R-HDHA (as prepared with COX-2 vide infra), 5S,12,18R-HEPE, or a 15-epi-LXA4 analog were determined with pouch lavages taken at 4 h. Peritonitis was performed using 6 to 8-week-old FVB male mice (Charles River Laboratories) fed laboratory Rodent Diet 5001 (Purina Mills) that were anesthetized with isoflurane, and compounds to be tested (125 μl) were administered intravenously. Zymosan A in 1 ml (1 mg/ml) was injected ˜1-1.5 min later in the peritoneum. Each test compound (100 ng/incubation, i.e. 17R-HDHA in ethanol) or vehicle alone was suspended in ˜5 μl and mixed in sterile saline 120 μl. Two hours after the intraperitoneal injections, and in accordance with the Harvard Medical Area Standing Committee on Animals protocol #02570, mice were euthanized and peritoneal lavages rapidly collected for enumeration.
Peritonitis was induced in 6 to 8 week old male FVB mice by peritoneal injection of 1 mg Zymosan A. Compounds 4,17S and 10,17S-diHDHA were injected by intravenous bolus injection, 1.5 minutes before Zymosan A treatment. Two hours after induction of peritonitis, rapid peritoneal lavages were collected and cell type enumeration was performed.

[2] = test system: airway leukocyte accumulation; test: OVA sensitization and aerosol challenge: lung histology and BAL leukocytes; format: in vivo
Protocol: To determine if PD1 and Resolvin E1 had properties of a counter-regulatory mediator during airway inflammation, physiologically relevant quantities (2, 20 or 200 ng) were administered by intravenous injection to allergen sensitized animals just prior (30 min) to aerosol challenge on 4 consecutive days. […] In conjunction with decreased airway inflammation, levels of the counter-regulatory eicosanoid LXA4 were also […] in the presence of PD1 (data not shown).
Five to seven week old male FvB mice (Charles River Laboratories, Wilmington, Mass.) were housed in isolation cages under viral antibody-free conditions. Mice were fed a standard diet (Laboratory Rodent Diet 5001, PMI Nutrition International, Richmond, Ind.) that contained no less than 4.5% total fat with 0.26% omega-3 fatty acids and <0.01% C20:4. After Harvard Medical Area IRB approval (Protocol #02570), mice were sensitized with intraperitoneal injections of ovalbumin (OVA) (Grade III; Sigma Chemical Co., St. Louis, Mo.) (10 μg) plus 1 mg aluminum hydroxide (ALUM) (J. T. Baker Chemical Co.; Phillipsburg, N.J.) as adjuvant in 0.2 ml PBS on days 0 and 7. On days 14, 15, 16 and 17, the mice received PD1 (2, 20 or 200 ng), Resolvin E1 (200 ng) (products of biogenic synthesis (Hong, Gronert et al. 2003)), or PBS with 1.6 mM CaCl2 and 1.6 mM MgCl2 (0.1 ml) by intravenous injection 30 min prior to an aerosol challenge containing either PBS or 6% OVA for 25 min/day. On day 18, 24 h after the last aerosol challenge, airway responsiveness to aerosolized methacholine (0, 20, 50 and 75 mg, 10 sec) was measured, bilateral bronchoalveolar lavage (BAL) (2 aliquots of 1 ml PBS plus 0.6 mM EDTA) was performed or tissues were harvested for histological analysis. Lung resistance was measured using a Flexivent ventilator (SciReq, Montreal, Quebec). Resistance was measured as a function of time for each animal, and peak and average values for each dose of methacholine were recorded. No BAL or histological analysis was performed on those animals undergoing airway hyper-responsiveness or lipid extraction studies.
Tissue morphometry was performed by a member (K. Haley) of the Lung Histopathology Core Laboratory at Brigham and Women's Hospital who was blinded to the experimental conditions prior to histological analyses. Three fields per slide were examined at 200× magnification for vessels, large airways and alveoli with EOS counted at 400× magnification in randomly assigned fields. Vessels were identified by perivascular smooth muscle, and large airways were identified by at least ½ their diameter either cuboidal or columnar epithelia. Measurement of inflammatory mediators was determined in cell-free BAL fluid (2000 g, 10 min) by sensitive and specific ELISAs, in tandem, for interleukin-5 (IL-5), IL-12, IL-13, PGD2 (R&D Systems, Minneapolis, Minn.), cysteinyl LTs, (Cayman Chemical Co, Ann Arbor, Mich.), and LXA4 (Neogen, Lexington, Ky.). Cells in BALF were resuspended in PBS, enumerated by hemocytometer, and concentrated onto microscope slides by cytocentrifuge (STATspin) (265 g). Cells were stained with a Wright-Giemsa stain (Sigma Chemical Co.) to determine leukocyte differentials (after counting ≧200 cells).

leukocyte infiltration = test: TNFα-induced dorsal air pouch; format: in vivo, FVB mice; conditions: FIG. 5C

% Increase of 17-HDHA (human recombinant COX-2; NSAID incubated 30 min with COX-2, ASA 2 mM, indomethacin 200 μM, acetaminophen 500 μM, NS398 100 μM, mean±SEM, n=3): 0.0% | inhibition at 500 µM (human recombinant COX-2; read-out: % Inhibition of 13-HDHA): 87.7 ± 4.3%
SMILES: CC(=O)Nc1ccc(O)cc1 [Acetaminophen, acetaminophen]
formation of 17R-HDHA from DHA by NSAID-treated COX-2 (human recombinant COX-2; recombinant COX-2 incubations): did not give appreciable amounts of 17R-HDHA

IC50 [1]: ~0.05 nM
SMILES: CC/C=C\C/C=C\C=C\C(O)C/C=C\C/C=C\C/C=C\CCC(=O)O (centres unmarked) [13-HDHA, 13-hydroxy-DHA]

SMILES: CC[C@@H](O)/C=C/C=C\C[C@@H](O)/C=C/C=C/C=C\[C@@H](O)CCCC(=O)O [Resolvin E1, 5S,12R,18R-trihydroxy-6Z,8E,10E,14Z,16E-eicosapentaenoic acid]
inhibition of PMN/leukocyte infiltration (PMN infiltration): reduction of neutrophil infiltration | eosinophil and lymphs (FIG. 25) ([2]; 10,17-DT 20 ng and 200 ng, Resolvin E1 200 ng): reduction | total leukocytes, EOS and Lymphs in BAL fluid ([2]; PD1 2, 20 or 200 ng, Resolvin E1 200 ng i.v.): decreased

SMILES: CCC(O)/C=C/C=C\C/C=C\C/C=C\C=C\[C@@H](O)CCCC(=O)O (mixture of isomers) [5S,18(+/−)-diHEPA]
potency relative to comparator at equal dose (PMN infiltration; PMN/leukocyte infiltration, FIG. 16 and FIG. 18): equipotent to Resolvin E1 | inhibition of PMN/leukocyte infiltration (PMN infiltration): downregulation of PMN infiltration | inhibition of PMN/leukocyte infiltration (PMN infiltration; listed as 5S,18(+/−)-diHEPE): reduction of neutrophil infiltration

SMILES: CC/C=C\C[C@@H](O)/C=C/C=C\C/C=C\C=C\[C@@H](O)C/C=C\CCC(=O)O [7S,17R-diHDHA, 7S,17R-dihydroxy-docosa-4Z,8E,10Z,13Z,15E,19Z-hexaenoic acid]
inhibition of PMN/leukocyte infiltration (PMN infiltration): potent inhibitor

SMILES: CC/C=C\C[C@H](O)/C=C/C=C\CC(O)\C=C/C=C/C=C/[C@@H](O)CCC(=O)O (stereo partly drawn) [4S,11,17R-triHDHA, 4S,11,17S,-trihydroxy-docosa-5E,7E,9Z,13Z,15E,19Z-hexaenoic acid]
inhibition of PMN/leukocyte infiltration (PMN infiltration): potent inhibitor

SMILES: CC/C=C\C[C@H](O)/C=C/C=C\C=C\[C@@H](O)C/C=C\CC#CCCC(=O)O [4,5-dehydro 10,17S-dihydroxy DHA]
inhibition of the PMN infiltration (PMN infiltration; 100 ng dose): 40%

SMILES: CC[C@@H](O)/C=C/C=C\C[C@@H](O)/C=C/C=C/C=C\[C@@H](O)CCCC(=O)O [EPA-derived 5,12,18R series product]
prevention of leukocyte diapedesis and exudate formation relative to 15-epi-lipoxin A4 stable analog (leukocyte infiltration): as effective as a potent stable analog of 15-epi-lipoxin A4

Reference: patent publication US8933270B2, “Use of docasatrienes, resolvins, and their stable analogs in the treatment of airway diseases and asthma” (The Brigham and Women's Hospital, Inc., priority 2002, dated 2015)
